“Also recorded” adds a separate entry of the source.
Experiments:
Type in all cases: cell-based
[1] = test system: zebrafish PPARγ; assay: Transient transactivation assay in HeLa cells, GAL4-zebrafish PPARγ LBD; conditions: 10 μM TBBPA, TCBPA, MEHP, 1 μM rosiglitazone
[2] = test system: 3T3L1 preadipocytes; assay: 3T3L1 preadipocyte differentiation (Oil Red O staining); conditions: for induction of adipogenesis (Oil Red O staining): 8-day treatment with 10 μg/mL insulin and ligand, TCBPA and TBBPA at 10 μM
Experimental: NIH3T3-L1 differentiation. Two-day postconfluent 3T3L1 preadipocytes (a gift from L. Fajas; Institut de Génétique Moléculaire, Montpellier, France) were induced to differentiate by 2-day treatment with a differentiation mixture (10 μg/mL insulin, 1 μM dexamethasone, 0.5 mM isobutylmethylxanthine) followed by 8-day treatment with 10 μg/mL insulin and PPARγ ligands. The medium was replaced every 48 hr. After differentiation, cells were stained with Oil Red O for morphological analyses, or RNA was extracted from the cells using the RNeasy RNA isolation kit (Qiagen, Courtaboeuf, France). For RNA extractions, four independent cultures were performed per condition. Reverse transcription was performed with random hexamers on 1 μg total RNA using SuperScript II reverse transcriptase (Invitrogen), and the reaction was diluted 100 times for amplification. Real-time polymerase chain reaction (PCR) quantification was then performed using SYBR Green technology (LightCycler; Roche Diagnostics, Meylan, France). Results were normalized to two housekeeping genes (18S and 36B4) and quantified using qBase (Roche Diagnostics).
Two-day postconfluent 3T3L1 cells were treated for 8 days with 10 μg/mL insulin with vehicle (0.1% DMSO) or the ligands as indicated. Rosi, rosiglitazone. (A) Entire wells imaged after Oil Red O staining. (B) Quantitative real-time PCR of PPARγ and adipocyte-specific fatty acid–binding protein AP2 expression levels in postconfluent 3T3-L1 cells treated with the ligands for 24 hr. Data were normalized to 18S or 36B4 controls and plotted as average fold induction ± SE (n = 3 per treatment).

[3] = biological target: T1, ERα (Homo sapiens, UniProt P03372); assay: HGELN-ERα stable reporter cell luciferase assay; conditions: for ranking order of estrogenic potency, ERα: HELN-ERα cell line; for agonistic activity toward ERα (luciferase): HGELN-ERα cells, relative to 10 nM E2; for ERα versus ERβ selectivity: HGELN-ERα vs HGELN-ERβ cells
T1 construct: expressed in transfected cells; host or cells: HGELN (HeLa-derived) cells, stably transfected
T1 sequence (P03372 1-595): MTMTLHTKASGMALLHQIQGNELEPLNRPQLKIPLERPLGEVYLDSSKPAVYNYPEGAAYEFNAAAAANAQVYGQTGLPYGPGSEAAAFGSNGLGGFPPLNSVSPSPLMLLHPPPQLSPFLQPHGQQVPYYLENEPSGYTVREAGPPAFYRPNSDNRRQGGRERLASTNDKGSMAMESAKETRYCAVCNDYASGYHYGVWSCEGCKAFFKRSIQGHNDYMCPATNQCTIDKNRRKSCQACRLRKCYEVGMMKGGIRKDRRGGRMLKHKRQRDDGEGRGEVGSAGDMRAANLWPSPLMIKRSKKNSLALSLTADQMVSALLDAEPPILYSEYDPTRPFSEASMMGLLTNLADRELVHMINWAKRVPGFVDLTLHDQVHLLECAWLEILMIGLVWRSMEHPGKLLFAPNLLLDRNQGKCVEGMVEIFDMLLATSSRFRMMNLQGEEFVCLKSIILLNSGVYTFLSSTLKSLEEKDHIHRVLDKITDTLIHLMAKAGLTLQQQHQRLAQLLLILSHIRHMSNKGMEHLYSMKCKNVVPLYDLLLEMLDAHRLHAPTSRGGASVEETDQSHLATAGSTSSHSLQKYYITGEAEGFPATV
Experimental: (§1) Reporter cell lines and stable gene expression assay. […] Briefly, reporter cells were seeded at a density of 20,000 cells/well in 96-well white opaque tissue culture plates and maintained in phenol-red–free Dulbecco’s modiﬁed Eagle’s medium (DMEM) supplemented with 5% dextran-coated, charcoal-treated fetal calf serum. Twenty-four hours later, culture medium was replaced with DMEM containing tested compounds. We performed assays in the absence of serum to avoid ligand capture by serum proteins. Sixteen hours after exposure, we replaced media with media containing 0.3 mM luciferin. Luminescence was measured in intact living cells for 2 sec in a Microbeta Wallac luminometer (PerkinElmer).

[4] = biological target: T2, ERβ (Homo sapiens, UniProt Q92731); assay: HGELN-ERβ stable reporter cell luciferase assay; conditions: for ranking order of estrogenic potency, ERβ: HELN-ERβ cell line; for agonistic activity toward ERβ (luciferase): HGELN-ERβ cells, relative to 10 nM E2
T2 construct: expressed in transfected cells; host or cells: HGELN (HeLa-derived) cells, stably transfected
T2 sequence (Q92731 whole entry): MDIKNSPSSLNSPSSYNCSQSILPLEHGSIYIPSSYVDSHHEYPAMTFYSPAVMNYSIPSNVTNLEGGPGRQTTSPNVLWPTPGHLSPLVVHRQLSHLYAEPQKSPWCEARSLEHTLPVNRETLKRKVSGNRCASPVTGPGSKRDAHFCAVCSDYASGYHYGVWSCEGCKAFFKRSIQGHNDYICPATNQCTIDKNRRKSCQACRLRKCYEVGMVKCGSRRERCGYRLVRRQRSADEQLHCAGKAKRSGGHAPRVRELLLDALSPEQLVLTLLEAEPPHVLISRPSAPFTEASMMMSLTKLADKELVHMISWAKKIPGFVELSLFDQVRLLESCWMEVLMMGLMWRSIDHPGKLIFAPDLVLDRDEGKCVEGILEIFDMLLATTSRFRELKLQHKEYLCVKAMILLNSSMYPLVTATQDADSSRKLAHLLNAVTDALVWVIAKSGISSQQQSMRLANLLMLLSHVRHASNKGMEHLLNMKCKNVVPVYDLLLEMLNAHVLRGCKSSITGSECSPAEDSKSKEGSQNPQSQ
Experimental: as §1

[5] = biological target: T3, PPARγ (Homo sapiens, UniProt P37231); assay: HGELN-PPARγ stable reporter cell luciferase assay; conditions: HGELN-PPARγ cells; for activation of PPARγ (luciferase): relative to 100 nM rosiglitazone
T3 sequence (P37231 238-505 limits assumed): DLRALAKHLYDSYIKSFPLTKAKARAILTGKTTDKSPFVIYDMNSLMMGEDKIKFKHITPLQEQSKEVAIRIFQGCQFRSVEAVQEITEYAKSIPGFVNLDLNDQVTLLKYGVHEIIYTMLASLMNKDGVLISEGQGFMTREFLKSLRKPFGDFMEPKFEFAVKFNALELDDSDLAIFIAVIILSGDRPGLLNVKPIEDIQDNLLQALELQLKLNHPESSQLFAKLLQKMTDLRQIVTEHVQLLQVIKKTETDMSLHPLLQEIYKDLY
Experimental: as §1

[6] = test system: PPARγ target genes (AP2, PPARγ) in 3T3-L1 cells; assay: Real-time PCR of PPARγ target genes in 3T3-L1 cells
Experimental: Two-day postconfluent 3T3L1 preadipocytes (a gift from L. Fajas; Institut de Génétique Moléculaire, Montpellier, France) were induced to differentiate by 2-day treatment with a differentiation mixture (10 μg/mL insulin, 1 μM dexamethasone, 0.5 mM isobutylmethylxanthine) followed by 8-day treatment with 10 μg/mL insulin and PPARγ ligands. […] After differentiation, cells were stained with Oil Red O for morphological analyses, or RNA was extracted from the cells using the RNeasy RNA isolation kit (Qiagen, Courtaboeuf, France). […] Reverse transcription was performed with random hexamers on 1 μg total RNA using SuperScript II reverse transcriptase (Invitrogen), and the reaction was diluted 100 times for amplification. Real-time polymerase chain reaction (PCR) quantification was then performed using SYBR Green technology (LightCycler; Roche Diagnostics, Meylan, France). Results were normalized to two housekeeping genes (18S and 36B4) and quantified using qBase (Roche Diagnostics).
Two-day postconfluent 3T3L1 cells were treated for 8 days with 10 μg/mL insulin with vehicle (0.1% DMSO) or the ligands as indicated. […] (B) Quantitative real-time PCR of PPARγ and adipocyte-specific fatty acid–binding protein AP2 expression levels in postconfluent 3T3-L1 cells treated with the ligands for 24 hr.

[7] = biological target: T3, PPARγ; assay: Transient transactivation assay in HeLa cells, GAL4-hPPARγ; conditions: 10 μM TBBPA, TCBPA, MEHP

Row | ranking order of estrogenic potency, ERα [3] | ranking order of estrogenic potency, ERβ [4] | ranking of ability to activate PPARγ [5] | agonistic activity toward ERα (luciferase) [3] | agonistic activity toward ERβ (luciferase) [4] | Compound | induction of adipogenesis (Oil Red O staining) [2] | activation of PPARγ (luciferase) [5] | further results
1 |  |  |  |  |  | CN(CCOc1ccc(CC2SC(=O)NC2=O)cc1)c1ccccn1 (centres unmarked) [rosiglitazone, reference compound] | strongly induced adipogenesis |  | activation of zebrafish PPARγ (transient transfection) [1]: completely inactive
2 | monoBBPA > diBBPA > triBBPA | monoBBPA > diBBPA > triBBPA | TBBPA = triBBPA > diBBPA >>> monoBBPA |  |  | 3,3´,5-tribromoBPA [triBBPA] |  | highest potency | 
3 | monoBBPA > diBBPA > triBBPA | monoBBPA > diBBPA > triBBPA | TBBPA = triBBPA > diBBPA >>> monoBBPA | highest transactivation efficiency |  | 3,3´-dibromoBPA [diBBPA] |  |  | ERα versus ERβ selectivity [3]: slight ERα selectivity
4 | monoBBPA > diBBPA > triBBPA | monoBBPA > diBBPA > triBBPA | TBBPA = triBBPA > diBBPA >>> monoBBPA | highest transactivation efficiency |  | 3-MonobromoBPA [monoBBPA] |  |  | ERα versus ERβ selectivity [3]: slight ERα selectivity
5 |  | no estrogenic activity at all |  |  | little effect | CC(C)(c1cc(Br)c(O)c(Br)c1)c1cc(Br)c(O)c(Br)c1 [TBBPA, 2,2-bis(3,5-dibromo-4-hydroxyphenyl)propane] | induced adipogenesis |  | adipogenic action upon co-treatment with PPARγ antagonist CD5477 ([2]; co-treatment with CD5477): inhibited the adipogenic action

Row | Compound | ranking order of estrogenic potency, ERα [3] | ranking order of estrogenic potency, ERβ [4] | ranking of ability to activate PPARγ [5] | agonistic activity toward ERα (luciferase) [3] | agonistic activity toward ERβ (luciferase) [4] | induction of adipogenesis (Oil Red O staining) [2] | activation of PPARγ (luciferase) [5] | further results
6 | CC(C)(c1cc(Cl)c(O)c(Cl)c1)c1cc(Cl)c(O)c(Cl)c1 [TCBPA, 2,2-bis(3,5-dichloro-4-hydroxyphenyl)propane] |  |  |  |  | partially activated | induced adipogenesis | partially activating PPARγ | AP2 expression level compared with rosiglitazone [6]: much lesser extent; activation of zebrafish PPARγ (transient transfection) [1]: activated; activation of human PPARγ (transient transfection) [7]: activators
7 | CC(C)(c1ccc(O)cc1)c1ccc(O)cc1 [BPA, bisphenol A] |  |  |  | almost full agonistic activity; also recorded: highest transactivation efficiency | almost full agonistic activity |  | failed to activate; also recorded: absence of significant interaction | 
